Measurements published in US10577363B2, “Substituted piperidine compounds” (EPIZYME, INC., priority 2014, dated 2020).

How the values were obtained:
SMYD3 [1] = biological target: T1, SMYD3 (Homo sapiens (Human), UniProt Q9H7B4); assay: SMYD3 biochemical assay (SPA, 3H-SAM methylation of MEKK2 protein substrate); settings: average of n = 1 to n = 50; read-out: SMYD3 Biochem IC50
Outline: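 Enzyme: untagged full-length human SMYD3 from E. coli; substrate GST-tagged MEKK2 from insect cells. Buffer 25 mM Tris-Cl pH 8.0, 1 mM TCEP, 0.005% BSG/Tween 20. 30 min compound–enzyme preincubation at RT; 3H-SAM/MEKK2 start; stop with cold SAM (100 uM final); SPA readout in cpm.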

SMYD3 [2] = biological target: T1, SMYD3; assay: SMYD3 cell assay (Trimethyl-MEKK2 In-Cell Western in 293T/17 cells); assay type: cell-based; settings: average of n = 1 to n = 50; read-out: SMYD3 Cell IC50
Outline: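 In-Cell Western readout: methanol-fixed cells stained for trimethyl-MEKK2 and flag tag, ratio per well normalized to DMSO and background controls.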

T1 sequence (Q9H7B4 whole entry): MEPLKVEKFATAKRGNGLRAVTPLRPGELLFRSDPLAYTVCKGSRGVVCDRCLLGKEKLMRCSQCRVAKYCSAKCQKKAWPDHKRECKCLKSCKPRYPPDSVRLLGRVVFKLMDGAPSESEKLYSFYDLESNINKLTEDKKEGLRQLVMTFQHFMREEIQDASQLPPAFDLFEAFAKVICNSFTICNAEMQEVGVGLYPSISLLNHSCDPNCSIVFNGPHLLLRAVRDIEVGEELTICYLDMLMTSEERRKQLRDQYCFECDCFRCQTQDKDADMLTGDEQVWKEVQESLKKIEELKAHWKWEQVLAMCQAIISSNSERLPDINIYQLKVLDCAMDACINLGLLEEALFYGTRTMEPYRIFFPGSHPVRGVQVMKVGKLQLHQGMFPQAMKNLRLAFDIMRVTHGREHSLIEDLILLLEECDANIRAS

Structure (SMILES)	IC50 (SMYD3 [1])	IC50 (SMYD3 [2])
C[C@H]1CN(S(=O)(=O)CCCNCc2ccccc2)[C@@H](C)C[C@H]1NC(=O)c1cc(C2CC2)on1 [compound 628, N-((2S,4R,5S)-1-((3-(benzylamino)propyl)sulfonyl)-2,5-dimethylpiperidin-4-yl)-5-cyclopropylisoxazole-3-carboxamide]	27.3 nM	577 nM
CC(C)NCCCS(=O)(=O)N1CC[C@H](NC(=O)c2cc(C3CC3)on2)C[C@@H]1C [compound 633, 5-cyclopropyl-N-((2S,4S)-1-((3-(isopropylamino)propyl)sulfonyl)-2-methylpiperidin-4-yl)isoxazole-3-carboxamide]	30.4 nM	291 nM
CCC1CN(S(=O)(=O)N2[C@@H]3CC[C@H]2C[C@@H](NC(=O)c2cc(C4CC4)on2)C3)CCN1 (stereo partly drawn) [compound 636, 5-cyclopropyl-N-((1R,3r,5S)-8-((3-ethylpiperazin-1-yl)sulfonyl)-8-azabicyclo[3.2.1]octan-3-yl)isoxazole-3-carboxamide]	33.2 nM	365 nM
C[C@H]1C[C@@H](NC(=O)c2cc(C3CC3)on2)CCN1S(=O)(=O)N1CCCN(C)CC1 [compound 639, 5-cyclopropyl-N-((2S,4S)-2-methyl-1-((4-methyl-1,4-diazepan-1-yl)sulfonyl)piperidin-4-yl)isoxazole-3-carboxamide]	34.8 nM	258 nM
CN1CCN(S(=O)(=O)N2[C@@H]3CC[C@H]2C[C@@H](NC(=O)c2cc(C4CC4)on2)C3)CC1 [compound 641, 5-cyclopropyl-N-((1R,3r,5S)-8-((4-methylpiperazin-1-yl)sulfonyl)-8-azabicyclo[3.2.1]octan-3-yl)isoxazole-3-carboxamide]	36.3 nM	188 nM
O=C(N[C@H]1C[C@H]2CC[C@@H](C1)N2S(=O)(=O)N1CCNC(CO)C1)c1cc(C2CC2)on1 (stereo partly drawn) [compound 643, 5-cyclopropyl-N-((1R,3r,5S)-8-((3-(hydroxymethyl)piperazin-1-yl)sulfonyl)-8-azabicyclo[3.2.1]octan-3-yl)isoxazole-3-carboxamide]	37.8 nM	211 nM
C[C@H]1CN(S(=O)(=O)NC2CCNCC2)CC[C@H]1NC(=O)c1cc(C2CC2)on1 [compound 646, 5-cyclopropyl-N-((3S,4R)-3-methyl-1-(N-(piperidin-4-yl)sulfamoyl)piperidin-4-yl)isoxazole-3-carboxamide]	45.2 nM	755 nM
CNCCS(=O)(=O)N1[C@@H]2CC[C@H]1C[C@@H](NC(=O)c1cc(C3CC3)on1)C2 [compound 649, 5-cyclopropyl-N-((1R,3r,5S)-8-((2-(methylamino)ethyl)sulfonyl)-8-azabicyclo[3.2.1]octan-3-yl)isoxazole-3-carboxamide]	47.2 nM	261 nM
CN(C)C1CCN(CCS(=O)(=O)N2[C@@H]3CC[C@H]2C[C@@H](NC(=O)c2cc(C4CC4)on2)C3)C1 (stereo partly drawn) [compound 651, 5-cyclopropyl-N-((1R,3r,5S)-8-((2-(3-(dimethylamino)pyrrolidin-1-yl)ethyl)sulfonyl)-8-azabicyclo[3.2.1]octan-3-yl)isoxazole-3-carboxamide]	50.6 nM	532 nM
C[C@@H]1C[C@@H](NC(=O)c2cc(C3CC3)on2)CCN1S(=O)(=O)N1CCNCC1 [compound 652, 5-cyclopropyl-N-((2R,4S)-2-methyl-1-(piperazin-1-ylsulfonyl)piperidin-4-yl)isoxazole-3-carboxamide]	51.1 nM	339 nM
C[C@H]1CN(S(=O)(=O)N(C)C2CCNCC2)CC[C@H]1NC(=O)c1cc(C2CC2)on1 [compound 653, 5-cyclopropyl-N-((3S,4R)-3-methyl-1-(N-methyl-N-(piperidin-4-yl)sulfamoyl)piperidin-4-yl)isoxazole-3-carboxamide]	55 nM	328 nM
COCCN1CCC(CS(=O)(=O)N2CC[C@@H](NC(=O)c3cc(C4CC4)on3)[C@@H](C)C2)CC1 [compound 654, 5-cyclopropyl-N-((3S,4R)-1-(((1-(2-methoxyethyl)piperidin-4-yl)methyl)sulfonyl)-3-methylpiperidin-4-yl)isoxazole-3-carboxamide]	56 nM	340 nM

Other lines, results leading:

IC50 (SMYD3 [1])	IC50 (SMYD3 [2])	Structure (SMILES)
26.5 nM	243 nM	C[C@H]1CN(S(=O)(=O)c2ccc(C(C)(C)N)cc2)CC[C@H]1NC(=O)c1cc(C2CC2)on1 [compound 627, N-((3S,4R)-1-((4-(2-aminopropan-2-yl)phenyl)sulfonyl)-3-methylpiperidin-4-yl)-5-cyclopropylisoxazole-3-carboxamide]
28.2 nM	407 nM	C[C@@H]1CN(S(=O)(=O)CC2CCNCC2)[C@H](C)C[C@@H]1NC(=O)c1cc(C2CC2)on1 [compound 629, 5-cyclopropyl-N-((2R,4S,5R)-2,5-dimethyl-1-((piperidin-4-ylmethyl)sulfonyl)piperidin-4-yl)isoxazole-3-carboxamide]
29.4 nM	396 nM	C[C@H]1C[C@@H](NC(=O)c2cc(C3CC3)on2)CCN1S(=O)(=O)CCCNCC1CC1 [compound 630, 5-cyclopropyl-N-((2S,4S)-1-((3-((cyclopropylmethyl)amino)propyl)sulfonyl)-2-methylpiperidin-4-yl)isoxazole-3-carboxamide]
29.8 nM	298 nM	C[C@H]1C[C@@H](NC(=O)c2cc(C3CC3)on2)CCN1S(=O)(=O)N1CC2CCC1CN2C (stereo partly drawn) [compound 631, 5-cyclopropyl-N-((2S,4S)-2-methyl-1-((5-methyl-2,5-diazabicyclo[2.2.2]octan-2-yl)sulfonyl)piperidin-4-yl)isoxazole-3-carboxamide]
30.4 nM	229 nM	C[C@H]1CN(S(=O)(=O)CC2CCNCC2)[C@@H](C)C[C@H]1NC(=O)c1cc(C2CC2)on1 [compound 632, 5-cyclopropyl-N-((2S,4R,5S)-2,5-dimethyl-1-((piperidin-4-ylmethyl)sulfonyl)piperidin-4-yl)isoxazole-3-carboxamide]
31.8 nM	176 nM	C[C@@H]1CN(S(=O)(=O)N2CC[C@H](NC(=O)c3cc(C4CC4)on3)C[C@@H]2C)CCN1 [compound 634, 5-cyclopropyl-N-((2S,4S)-2-methyl-1-(((R)-3-methylpiperazin-1-yl)sulfonyl)piperidin-4-yl)isoxazole-3-carboxamide]
32.5 nM	318 nM	C[C@H]1C[C@@H](NC(=O)c2cc(C3CC3)on2)CCN1S(=O)(=O)CCCNCC(C)(C)C [compound 635, 5-cyclopropyl-N-((2S,4S)-2-methyl-1-((3-(neopentylamino)propyl)sulfonyl)piperidin-4-yl)isoxazole-3-carboxamide]
33.4 nM	203 nM	C[C@H]1CN(S(=O)(=O)N2CCNCC2)[C@@H](C)C[C@H]1NC(=O)c1cc(C2CC2)on1 [compound 637, 5-cyclopropyl-N-((2S,4R,5S)-2,5-dimethyl-1-(piperazin-1-ylsulfonyl)piperidin-4-yl)isoxazole-3-carboxamide]
33.7 nM	254 nM	C[C@H]1C[C@@H](NC(=O)c2cc(C3CC3)on2)CCN1S(=O)(=O)N1CCNC(C)(C)C1 [compound 638, 5-cyclopropyl-N-((2S,4S)-1-((3,3-dimethylpiperazin-1-yl)sulfonyl)-2-methylpiperidin-4-yl)isoxazole-3-carboxamide]
35.7 nM	480 nM	CC(C)CNCCCS(=O)(=O)N1CC[C@H](NC(=O)c2cc(C3CC3)on2)C[C@@H]1C [compound 640, 5-cyclopropyl-N-((2S,4S)-1-((3-(isobutylamino)propyl)sulfonyl)-2-methylpiperidin-4-yl)isoxazole-3-carboxamide]
37.6 nM	571 nM	C[C@@H]1CN(S(=O)(=O)CCCN)[C@H](C)C[C@@H]1NC(=O)c1cc(C2CC2)on1 [compound 642, N-((2R,4S,5R)-1-((3-aminopropyl)sulfonyl)-2,5-dimethylpiperidin-4-yl)-5-cyclopropylisoxazole-3-carboxamide]
41.3 nM	303 nM	C[C@@H]1C[C@H](NC(=O)c2cc(C3CC3)on2)CCN1C(=O)c1ccc(C2CCNCC2)cc1 [compound 644, 5-cyclopropyl-N-((2R,4R)-2-methyl-1-(4-(piperidin-4-yl)benzoyl)piperidin-4-yl)isoxazole-3-carboxamide]
44.4 nM	575 nM	C[C@H]1C[C@@H](NC(=O)c2cc(C3CC3)on2)CCN1S(=O)(=O)CCCNC(c1ccccc1)c1ccccc1 [compound 645, N-((2S,4S)-1-((3-(benzhydrylamino)propyl)sulfonyl)-2-methylpiperidin-4-yl)-5-cyclopropylisoxazole-3-carboxamide]
45.5 nM	809 nM	O=C(N[C@H]1CCN(S(=O)(=O)CC2CCNCC2)[C@@H](Cc2ccccc2)C1)c1cc(C2CC2)on1 [compound 647, N-((2S,4S)-2-benzyl-1-((piperidin-4-ylmethyl)sulfonyl)piperidin-4-yl)-5-cyclopropylisoxazole-3-carboxamide]
46.8 nM	331 nM	COCCCN1CCC(CS(=O)(=O)N2CC[C@@H](NC(=O)c3cc(C4CC4)on3)[C@@H](C)C2)CC1 [compound 648, 5-cyclopropyl-N-((3S,4R)-1-(((1-(3-methoxypropyl)piperidin-4-yl)methyl)sulfonyl)-3-methylpiperidin-4-yl)isoxazole-3-carboxamide]
49.1 nM	4630 nM	C[C@H]1C[C@@H](NC(=O)c2cc(C3CC3)on2)CCN1S(=O)(=O)NCCN [compound 650, N-((2S,4S)-1-(N-(2-aminoethyl)sulfamoyl)-2-methylpiperidin-4-yl)-5-cyclopropylisoxazole-3-carboxamide]
